Reference: patent US20100130579A1, “CANCER THERAPY” (Georgetown University, priority 2006, published 2010)

Legend:
cyclin B1 = assay: RT-PCR of cyclin B1 mRNA in prostate cancer cells; type: cell-based, human; settings: PC3 or LNCaP cells, mahanine treatment
Description: FIG. 5. RASSF1A down-regulates cyclin D1 expression in prostate cancer cells but not other cyclins. […] RNA was extracted, and RT-PCR assays were performed to detect RASSF1A, cyclin A1, B1, D1, E1 and GAPDH mRNAs. Representative photograph from an experiment that was repeated thrice. Quantitative estimations of relative levels of cyclin D1 and RASSF1A mRNAs were determined by densitometric measurements of RT-PCR gels from three independent experiments after normalization with GAPDH.
Genes of interest were amplified using 500 ng of total RNA reverse-transcribed to cDNA using a Superscript II kit (Invitrogen) with random hexamers. Human-specific primers were designed using the Primer Quest program and purchased from Integrated DNA Technologies, Inc (Coralville, Iowa). […] After amplification, PCR products were separated on 1.5% agarose gels and visualized by ethidium bromide fluorescence using the Fuji LAS-1000 Imager. […] Band intensities were quantified by using ImageJ software (NIH, Bethesda, Md.).

LNCaP and PC3 cells = settings: 3 μg/ml; cited from earlier work

**Q.** With `CC(C)=CCC[C@@]1(C)C=Cc2c(c(C)cc3c2[nH]c2cc(O)ccc23)O1` [mahanine] as the compound, how does the “cyclin B1 expression (RT-PCR)” value (cyclin B1) read?
**A.** The value was “did not alter the expression”.

**Q.** What about the apoptosis (LNCaP and PC3 cells) of the same compound?
**A.** Its apoptosis is “induces apoptosis”.
